In US10874104B2, “Pesticidally active pryazole derivatives” (SYNGENTA PARTICIPATIONS AG, priority 2016, dated 2020):
Read-outs that look alike come from different tables or passages of the source.

Tests used:
Assay type in all cases: in vivo
[1] = system: Diabrotica balteata (Corn Root Worm); assay: Diabrotica balteata (corn root worm), sprayed maize sprouts on agar, mortality; conditions: 96 h
Description: Diabrotica balteata (Corn Root Worm):
Maize sprouts placed onto an agar layer in 24-well microtiter plates were treated with aqueous test solutions prepared from 10′000 ppm DMSO stock solutions by spraying. After drying, the plates were infested with L2 larvae (6 to 10 per well). The samples were assessed for mortality 4 days after infestation.

[2] = system: Euschistus heros (Neotropical Brown Stink Bug); assay: Euschistus heros (neotropical brown stink bug), feeding/contact activity, mortality; conditions: 120 h
Description: Euschistus heros (Neotropical Brown Stink Bug): Feeding/contact activity
(§1) Soybean leaves on agar in 24-well microtiter plates were sprayed with aqueous test solutions prepared from 10′000 ppm DMSO stock solutions. After drying the leaves were infested with N2 nymphs. The samples were assessed for mortality 5 days after infestation.

[3] = system: Plutella xylostella (Diamond Back Moth); assay: Plutella xylostella (diamond back moth), feeding/contact activity on artificial diet, mortality; conditions: 120 h
Description: Plutella xylostella (Diamond Back Moth): Feeding/Contact Activity
24-well microtiter plates with artificial diet were treated with aqueous test solutions prepared from 10′000 ppm DMSO stock solutions by pipetting. After drying, the plates were infested with L2 larvae (10 to 15 per well). The samples were assessed for mortality 5 days after infestation.

[4] = system: Spodoptera littoralis (Egyptian Cotton Leaf Worm); assay: Spodoptera littoralis (Egyptian cotton leaf worm), feeding/contact activity, mortality; conditions: 72 h
Description: Spodoptera littoralis (Egyptian Cotton Leaf Worm): Feeding/Contact Activity
(§2) Cotton leaf discs were placed onto agar in 24-well microtiter plates and sprayed with aqueous test solutions prepared from 10′000 ppm DMSO stock solutions. After drying the leaf discs were infested with five L1 larvae. The samples were assessed for mortality 3 days after infestation.

[5] = system: Tetranychus urticae (Two-Spotted Spider Mite); assay: Tetranychus urticae (two-spotted spider mite), feeding/contact activity, mortality; conditions: 192 h, application rate 200 ppm, mixed population (mobile stages), 8 days after infestation
Description: Tetranychus urticae (Two-Spotted Spider Mite): Feeding/Contact Activity
as §1, with “Bean leaf discs” for “Soybean leaves”, “leaf discs” for “leaves”, “a mite population of mixed ages.” for “N2 nymphs.”, “on mixed population (mobile stages) 8” for “5”

[6] = system: Thrips tabaci (Onion Thrips); assay: Thrips tabaci (onion thrips), feeding/contact activity, mortality; conditions: 144 h
Description: Thrips tabaci (Onion Thrips): Feeding/Contact Activity
as §2, with “Sunflower” for “Cotton”, “on” for “onto”, “a thrips population of mixed ages.” for “five L1 larvae.”, “6” for “3”

[7] = system: Myzus persicae (Green Peach Aphid); assay: Myzus persicae (green peach aphid), feeding/contact activity, mortality; conditions: 144 h, application rate 200 ppm, aphid population of mixed ages, 6 days after infestation
Description: Myzus persicae (Green Peach Aphid): Feeding/Contact Activity
Sunflower leaf discs were placed onto agar in a 24-well microtiter plate and sprayed with aqueous test solutions prepared from 10′000 ppm DMSO stock solutions. After drying, the leaf discs were infested with an aphid population of mixed ages. The samples were assessed for mortality 6 days after infestation.

[8] = application rate 200 ppm, L2 larvae, 4 days after infestation, read-out: mortality
[9] = application rate 200 ppm, N2 nymphs, 5 days after infestation, read-out: mortality
[10] = application rate 200 ppm, L2 larvae on artificial diet, 5 days after infestation, read-out: mortality
[11] = application rate 200 ppm, L1 larvae, 3 days after infestation, read-out: mortality
[12] = application rate 200 ppm, thrips population of mixed ages, 6 days after infestation, read-out: mortality

Measured: mortality at 200 ppm

Cn1nc(C(F)(F)C(F)(F)F)c(OC(F)(F)C(F)F)c1-n1cc(-c2ccc(Cl)c(C(=O)NC3(C#N)CC3)c2)cn1 [Compound 37]
≥ 80%: [1]; [8] | [2]; [9] | [3]; [10] | [4]; [11] | [5] | [6]; [12]

C=Cc1c(C(F)(F)C(F)(F)F)nn(C)c1-n1cc(-c2ccc(Cl)c(C(=O)NC3(C#N)CC3)c2)cn1 [Compound 15, 2-Chloro-N-(1-cyanocyclopropyl)-5-[1-[2-methyl-5-(1,1,2,2,2-pentafluoroethyl)-4-vinyl-pyrazol-3-yl]pyrazol-4-yl]benzamide]
≥ 80%: [1]; [8] | [2]; [9] | [7] | [3]; [10] | [4]; [11] | [5]

Cn1nc(C(F)(F)C(F)(F)F)c(S(=O)(=O)C2CC2)c1-n1cc(-c2ccc(Cl)c(C(=O)NC3(C#N)CC3)c2)cn1 [Compound 35]
≥ 80%: [1]; [8] | [2]; [9] | [3]; [10] | [4]; [11] | [5] | [6]; [12]

CCN(C(=O)c1cc(-c2cnn(-c3c(OC(F)F)c(C(F)(F)C(F)(F)F)nn3C)c2)ccc1C#N)C1CC1 [Compound 58]
≥ 80%: [1]; [8]

Cn1nc(C(F)(F)C(F)(F)F)c(SC2CC2)c1-n1cc(-c2ccc(Cl)c(C(=O)NC3CC3)c2)cn1 [Compound 20]
≥ 80%: [1]; [8] | [2]; [9] | [7] | [3]; [10] | [4]; [11] | [5] | [6]; [12]

Cn1nc(C(F)(F)C(F)(F)F)c(OC(F)F)c1-n1cc(-c2ccc(Cl)c(C(=O)NC3(C#N)CC3)c2)cn1 [Compound 1, 2-chloro-N-(1-cyanocyclopropyl)-5-[1-[4-(difluoromethoxy)-2-methyl-5-(1,1,2,2,2-pentafluoroethyl)pyrazol-3-yl]pyrazol-4-yl]benzamide]
≥ 80%: [1]; [8] | [2]; [9] | [7] | [3]; [10] | [4]; [11] | [5]

Cn1nc(C(F)(F)C(F)(F)F)c(OC(F)(F)C(F)C(F)(F)F)c1-n1cc(-c2ccc(Cl)c(C(=O)NC3(C#N)CC3)c2)cn1 (centres unmarked) [Compound 43]
≥ 80%: [1]; [8] | [3]; [10] | [4]; [11] | [6]; [12]

Cn1nc(C(F)(F)C(F)(F)F)c(SC2CC2)c1-n1cc(-c2ccc(Cl)c(C(=O)NC3(C#N)CC3)c2)cn1 [Compound 19]
≥ 80%: [1]; [8] | [2]; [9] | [7] | [3]; [10] | [4]; [11] | [5] | [6]; [12]

Cn1nc(C(F)(F)C(F)(F)F)c(OC(F)F)c1-n1cc(-c2cc(C(=O)NC3CC3)c(Cl)cc2F)cn1 [Compound 47]
≥ 80%: [3]; [10]

Cn1nc(C(F)(F)C(F)(F)F)c(OC(F)F)c1-n1cc(-c2ccc(Cl)c(C(=O)NC3CC3)c2)nn1 [Compound 65]
≥ 80%: [1]; [8]

Cn1nc(C(F)(F)C(F)(F)F)c(OC(F)(F)C(F)(F)C(F)(F)F)c1-n1cc(-c2ccc(Cl)c(C(=O)NC3(C#N)CC3)c2)cn1 [Compound 40]
≥ 80%: [1] | [2] | [3] | [4] | [6]

Cn1nc(C(F)(F)C(F)(F)F)c(OC(F)F)c1-n1cc(-c2ccc(C#N)c(C(=O)NC3CC3)c2)cn1 [Compound 62]
≥ 80%: [1]; [8]

Cn1nc(C(F)(F)C(F)(F)F)c(OC(F)F)c1-n1cc(-c2ccc(Cl)c(C(=O)NC3CC3)c2)cn1 [Compound 2, 2-Chloro-N-cyclopropyl-5-[1-[4-(difluoromethoxy)-2-methyl-5-(1,1,2,2,2-pentafluoroethyl)-pyrazol-3-yl]pyrazol-4-yl]benzamide]
≥ 80%: [1]; [8] | [2]; [9] | [7] | [3]; [10] | [4]; [11] | [5]

C#Cc1c(C(F)(F)C(F)(F)F)nn(C)c1-n1cc(-c2ccc(Cl)c(C(=O)NC3(C#N)CC3)c2)cn1 [Compound 17]
≥ 80%: [1]; [8] | [2]; [9] | [7] | [3]; [10] | [5]

Cn1nc(C(F)(F)C(F)(F)F)c(S(=O)(=O)C2CC2)c1-n1cc(-c2ccc(Cl)c(C(=O)NC3CC3)c2)cn1 [Compound 33]
≥ 80%: [1]; [8] | [2]; [9] | [3]; [10] | [4]; [11] | [5] | [6]; [12]

Cn1nc(C(F)(F)C(F)(F)F)c(OC(F)F)c1-n1cc(-c2ccc(Cl)c(C(=O)NC3(C#N)CC3)c2)nn1 [Compound 64, 2-Chloro-N-(1-cyanocyclopropyl)-5-[1-[4-(difluoromethoxy)-2-methyl-5-(1,1,2,2,2-pentafluoroethyl)pyrazol-3-yl]triazol-4-yl]benzamide]
≥ 80%: [1]; [8]

Cn1nc(C(F)(F)C(F)(F)F)c(OC(F)(F)C(F)C(F)(F)F)c1-n1cc(-c2ccc(Cl)c(C(=O)NC3CC3)c2)cn1 (centres unmarked) [Compound 46]
≥ 80%: [1]; [8] | [3]; [10] | [4]; [11] | [6]; [12]

Cn1nc(C(F)(F)C(F)(F)F)c(OC(F)F)c1-n1cc(-c2cnc(Cl)c(C(=O)NC3(C#N)CC3)c2)cn1 [Compound 21]
≥ 80%: [1]; [8] | [2]; [9] | [7] | [3]; [10] | [4]; [11] | [5]

Cn1nc(C(F)(F)C(F)(F)F)c(OCC(F)F)c1-n1cc(-c2ccc(Cl)c(C(=O)NC3CC3)c2)cn1 [Compound 44]
≥ 80%: [1]; [8] | [3]; [10] | [4]; [11] | [5]

Cn1nc(C(F)(F)C(F)(F)F)c(OC(F)(F)C(F)C(F)(F)F)c1-n1cc(-c2ccc(Cl)c(C(=O)NCc3ccccc3)c2)cn1 (centres unmarked) [Compound 57]
≥ 80%: [7]

Cn1nc(C(F)(F)C(F)(F)F)c(OC(F)(F)C(F)(F)C(F)(F)F)c1-n1cc(-c2ccc(Cl)c(C(=O)NC3CC3)c2)cn1 [Compound 45]
≥ 80%: [1] | [3] | [4] | [6]

CN(C(=O)c1cc(-c2cnn(-c3c(OC(F)F)c(C(F)(F)C(F)(F)F)nn3C)c2)ccc1C#N)C1CC1 [Compound 59]
≥ 80%: [1]; [8]

Cn1nc(C(F)(F)C(F)(F)F)c(OCC(F)F)c1-n1cc(-c2ccc(Cl)c(C(=O)NC3(C#N)CC3)c2)cn1 [Compound 39]
≥ 80%: [1]; [8] | [2]; [9] | [3]; [10] | [4]; [11] | [5]

C#Cc1c(C(F)(F)C(F)(F)F)nn(C)c1-n1cc(-c2ccc(Cl)c(C(=O)NC3CC3)c2)cn1 [Compound 18]
≥ 80%: [4]; [11]

CN(C(=O)c1cc(-c2cnn(-c3c(OC(F)F)c(C(F)(F)C(F)(F)F)nn3C)c2)ccc1C#N)C1(C#N)CC1 [Compound 61]
≥ 80%: [1]; [8]

COc1c(C(F)(F)C(F)(F)F)nn(C)c1-n1cc(-c2ccc(Cl)c(C(=O)NC3CC3)c2)cn1 [Compound 6]
≥ 80%: [1]; [8] | [2]; [9] | [3]; [10] | [4]; [11] | [5] | [6]; [12]

CCOc1c(C(F)(F)C(F)(F)F)nn(C)c1-n1cc(-c2ccc(Cl)c(C(=O)NC3(C#N)CC3)c2)cn1 [Compound 38]
≥ 80%: [1]; [8] | [2]; [9] | [3]; [10] | [4]; [11] | [5]
